Assay results as given in patent US20040115614A1, “Electrophysiology assay methods” (priority 2002, published 2004).
pIC50: −log10 of the molar value. “And” between values parts separate entries of the source, which are not always exact repeats. Equal values may be shown once. Read-outs that look alike come from different tables or passages of the source.

How the values were obtained:
Na^+ channels = assay type: cell-based, human; details: read-out: Tetrodotoxin IC50
[1] = tested on: voltage-gated sodium channels; assay type: cell-based, human
[2] = Protocol: The amplitude and rate of the observed depolarization was reduced by the removal of extracellular Na^+ concentration. […] This reduction effect was more pronounced in the absence of extracellular Na^+ and in cells that were not pre-incubated with the compound.

NC1=N[C@H](O)[C@H]2[C@H]3O[C@]4(O)O[C@@H]([C@@H](O)[C@@]2(N1)[C@@H]4O)[C@]3(O)CO [TTX, tetrodotoxin]
pIC50 (Na^+ channels): 8.02 and 8.17 | Amplitude (% max) [1]: 24.260 ± 0.290 % max | Rate (% change/ s) [1]: 0.001 ± 0.001 % change/ s | effect on voltage-induced depolarizations [1]: blocked the depolarizations in a dose-dependent manner | voltage-induced changes in plasma membrane potential [1]: completely abolished | pIC50 ([1]; read-out: IC50 for block of voltage-induced depolarizations): ~8.05

Charybdotoxin
Rate (% change/ s) ([1]; 100 nM, 30 min pre-incubation, 8 V train of 750 μs pulses, 8 pulses per s for 3 s): 0.115 ± 0.013 % change/ s | Amplitude (% max) ([1]; 100 nM, 30 min pre-incubation, 8 V train, % of maximal depolarization with 50 mM KCl): 34.09 ± 0.326 % max

COc1cc(N)c(Cl)cc1C(=O)NC1CCN(CCCOc2ccc(F)cc2)CC1OC (stereo not shown) [cisapride]
KCl-induced plasma membrane depolarization [2]: reduced

Clc1ccccc1C(c1ccccc1)(c1ccccc1)n1ccnc1 [Clotrimazole]
Rate (% change/ s) ([1]; 1 μM, 30 min pre-incubation, 8 V train of 750 μs pulses, 8 pulses per s for 3 s): 0.124 ± 0.024 % change/ s | Amplitude (% max) ([1]; 1 μM, 30 min pre-incubation, 8 V train, % of maximal depolarization with 50 mM KCl): 33.92 ± 0.320 % max

COc1ccc(CCN(C)CCCC(C#N)(c2ccc(OC)c(OC)c2)C(C)C)cc1OC (stereo not shown) [Verapamil]
Amplitude (% max) [1]: 32.84 ± 0.330 % max | Rate (% change/ s) [1]: 0.141 ± 0.014 % change/ s
